In paper PMC1971528, “Pharmacokinetic studies with the antifolate C2-desamino-C2-methyl-N10-propargyl-2'-trifluoromethyl-5,8-dideazafolic acid (CB3988) in mice and rats using in vivo 19F-NMR spectroscopy” (British Journal of Cancer, 1990):
Where two headings read alike, the source gives them in different places.

What was measured:
[1] = mice, 1986, cited from earlier work
[2] = parameters: method as in Alison et al., 1985; Newell et al., 1986; details: patients; ref Alison et al., 1985; Newell et al., 1986; cited from earlier work
[3] = mice, ref Newell et al., cited from earlier work
[4] = qualitative statement, no reference given; cited from earlier work
[5] = Plasma pharmacokinetics and biliary/urinary excretion in rats by HPLC; format: in vivo; details: 100 mg kg-1 i.v., CB3988 vs ICI 198583
Description: (§1) Br. J. Cancer (1990), 62, 766 772 ? Macmillan Press Ltd., 1990 Pharmacokinetic studies with the antifolate C2-desamino-C2-methyl-N10-propargyl-2'-trifluoromethyl-5,8-dideazafolic acid (CB3988) in mice and rats using in vivo '9F-NMR spectroscopy D.R. Newell', R.J. Maxwell2, G.M.F. Bisset', D.I. Jodrell' & J.R. Griffiths2 'Drug Development Section, Institute of Cancer Research, Sutton, Surrey SM2 SNG; and 2CRC Biomedical NMR Group, St George's Hospital Medical School, Tooting, London SW] 7 ORE, UK. Summary In vivo '9F-NMR spectroscopy has been used to study the pharmacokinetics of the experimental antifolate drug CB3988 (C2-desamino-C2-methyl-N'0-propargyl-2'trifluoromethyl-5,8-dideazafolic acid) in mice and rats. NMR results have been compared to those obtained by HPLC and the effect of the inclusion of the CF3 group evaluated by comparing the pharmacokinetics of CB3988 and ICI 198583 (C2-desamino-C2-methyl- N'?-propargyl-5,8-dideazafolic acid) in rats. In mice, following the administration of CB3988 (500 mg kg-' i.v.), drug could be detected in both the upper and the lower abdomen. […] Signal detected in the lower abdomen reached maximum intensity 60-90 min after treatment. […] In the preclinical setting such measurements are usually performed using radio- chemicals and either autoradiographic or quantitative tissue distribution studies (Siddik & Newell, 1988). […]

[6] = In vivo 19F-NMR spectroscopy of CB3988 in mice; details: 500 mg kg-1 i.v.
Description: (§2) Br. J. Cancer (1990), 62, 766 772 ? Macmillan Press Ltd., 1990 Pharmacokinetic studies with the antifolate C2-desamino-C2-methyl-N10-propargyl-2'-trifluoromethyl-5,8-dideazafolic acid (CB3988) in mice and rats using in vivo '9F-NMR spectroscopy D.R. Newell', R.J. Maxwell2, G.M.F. Bisset', D.I. Jodrell' & J.R. Griffiths2 'Drug Development Section, Institute of Cancer Research, Sutton, Surrey SM2 SNG; and 2CRC Biomedical NMR Group, St George's Hospital Medical School, Tooting, London SW] 7 ORE, UK. Summary In vivo '9F-NMR spectroscopy has been used to study the pharmacokinetics of the experimental antifolate drug CB3988 (C2-desamino-C2-methyl-N'0-propargyl-2'trifluoromethyl-5,8-dideazafolic acid) in mice and rats. NMR results have been compared to those obtained by HPLC and the effect of the inclusion of the CF3 group evaluated by comparing the pharmacokinetics of CB3988 and ICI 198583 (C2-desamino-C2-methyl- N'?-propargyl-5,8-dideazafolic acid) in rats. In mice, following the administration of CB3988 (500 mg kg-' i.v.), drug could be detected in both the upper and the lower abdomen. […] Signal detected in the lower abdomen reached maximum intensity 60-90 min after treatment. […] When the pharmacokinetics of CB3988 and ICI 198583 were compared the only significant difference was in the alpha phase half life which was 2-fold faster for CB3988. […] This is in contrast to N'?-propargyl-5,8-dideazafolic acid, where delayed excretion is associated with hepatic and renal toxicities. The ability to study CB3988 pharmacokinetics non-invasively by '9F-NMR spectroscopy confirms the utility of the technique and, since '9F-NMR can be applied directly to clinical investigations, it may be possible to obtain similar information in humans. It is now accepted that pharmacokinetics are an important determinant of both the activity and toxicity of anticancer drugs (Newell, 1989). This acceptance has led to the inclusion of pharmacokinetic studies in both the preclinical and early clinical evaluation of the majority of novel antitumour agents with two broad aims in mind. Firstly, the studies may be of direct clinical relevance in determining dose escalation during phase I studies (Collins et al., 1986; EORTC PAM Group, 1987) and secondly the information gained may be of value in interpreting both the toxicity and activity of the com- pound. This latter information can in turn be used to develop either new drugs or drug schedules which maximise the therapeutic potential of the agent. In order to conduct pharmacokinetic studies it is necessary to have a method which can accurately and selectively measure levels of the drug and its metabolites in biological fluids and tissues. Ideally the method should allow studies on drug levels in tumour deposits and in sensitive normal tissues since these are more likely to correlate with activity and toxicity than are levels in plasma or urine. In the preclinical setting such measurements are usually performed using radio- chemicals and either autoradiographic or quantitative tissue distribution studies (Siddik & Newell, 1988). However, in patients ethical and clinical considerations restrict the use of radioactive tracers and routine sampling of tumour or nor- mal tissue is not practicable. […] Using physiological pharmaco- kinetic modelling it is possible to extract some tissue distribu- tion information from such data although there is always considerable uncertainty attached to the results because of interpatient variation. […]

thymidylate synthase = system: thymidylate synthase; parameters: method as in A.L. Jackman, unpublished results; details: ref A.L. Jackman, unpublished results; cited from earlier work
[7] = cited from earlier work
[8] = Quantitative tissue distribution of CB3988 in mice by HPLC; format: in vivo; details: 500 mg kg-1 i.v.
Description: Br. J. Cancer (1990), 62, 766 772 ? Macmillan Press Ltd., 1990 Pharmacokinetic studies with the antifolate C2-desamino-C2-methyl-N10-propargyl-2'-trifluoromethyl-5,8-dideazafolic acid (CB3988) in mice and rats using in vivo '9F-NMR spectroscopy D.R. Newell', R.J. Maxwell2, G.M.F. Bisset', D.I. Jodrell' & J.R. Griffiths2 'Drug Development Section, Institute of Cancer Research, Sutton, Surrey SM2 SNG; and 2CRC Biomedical NMR Group, St George's Hospital Medical School, Tooting, London SW] 7 ORE, UK. Summary In vivo '9F-NMR spectroscopy has been used to study the pharmacokinetics of the experimental antifolate drug CB3988 (C2-desamino-C2-methyl-N'0-propargyl-2'trifluoromethyl-5,8-dideazafolic acid) in mice and rats. NMR results have been compared to those obtained by HPLC and the effect of the inclusion of the CF3 group evaluated by comparing the pharmacokinetics of CB3988 and ICI 198583 (C2-desamino-C2-methyl- N'?-propargyl-5,8-dideazafolic acid) in rats. In mice, following the administration of CB3988 (500 mg kg-' i.v.), drug could be detected in both the upper and the lower abdomen. […] Signal detected in the lower abdomen reached maximum intensity 60-90 min after treatment. […] When the pharmacokinetics of CB3988 and ICI 198583 were compared the only significant difference was in the alpha phase half life which was 2-fold faster for CB3988. […] This is in contrast to N'?-propargyl-5,8-dideazafolic acid, where delayed excretion is associated with hepatic and renal toxicities. The ability to study CB3988 pharmacokinetics non-invasively by '9F-NMR spectroscopy confirms the utility of the technique and, since '9F-NMR can be applied directly to clinical investigations, it may be possible to obtain similar information in humans. It is now accepted that pharmacokinetics are an important determinant of both the activity and toxicity of anticancer drugs (Newell, 1989). This acceptance has led to the inclusion of pharmacokinetic studies in both the preclinical and early clinical evaluation of the majority of novel antitumour agents with two broad aims in mind. Firstly, the studies may be of direct clinical relevance in determining dose escalation during phase I studies (Collins et al., 1986; EORTC PAM Group, 1987) and secondly the information gained may be of value in interpreting both the toxicity and activity of the com- pound. This latter information can in turn be used to develop either new drugs or drug schedules which maximise the therapeutic potential of the agent. […] In the preclinical setting such measurements are usually performed using radio- chemicals and either autoradiographic or quantitative tissue distribution studies (Siddik & Newell, 1988). […]

Acute toxicity in mice = format: in vivo; details: 500 mg kg-1 i.v.
Description: as §1

[9] = In vivo 19F-NMR spectroscopy of CB3988 in rats; details: 100 mg kg-1 i.v.
Description: as §2

Acute toxicity in rats = format: in vivo; details: 100 mg kg-1 i.v.
Description: as §1

[10] = parameters: method as in Newell et al., 1988; details: experimental systems; ref Newell et al., 1988; cited from earlier work
[11] = upper abdomen, cannulated and bile duct-intact

SMILES: C#CCN(Cc1ccc2nc(N)[nH]c(=O)c2c1)c1ccc(C(=O)N[C@@H](CCC(=O)O)C(=O)O)cc1 [CB3717, N10-propargyl-5,8-dideazafolic acid]
- nephrotoxicity ([1]; ref Alison et al., 1985, Newell et al.): nephrotoxic
- hepatotoxicity ([1]; ref Newell et al.): hepatotoxic
- nephrotoxicity [2]: nephrotoxic
- urinary excretion and persistence in kidney [3]; 1986: delayed urinary excretion and drug still present in the kidney weeks after administration
- aqueous solubility [4]: poor solubility

SMILES: C#CCN(Cc1ccc2nc(C)[nH]c(=O)c2c1)c1ccc(C(=O)N[C@@H](CCC(=O)O)C(=O)O)c(C(F)(F)F)c1 [CB3988, C2-desamino-C2-methyl-N10-propargyl-2'trifluoromethyl-5,8-dideazafolic acid]
- alpha phase half life, fold faster than ICI 198583 [5]: 2 fold
- time by which urinary excretion is essentially complete ([6]; NMR signal in bladder): ≤ 1 h
- time at which NMR signal in the lower abdomen reached maximum intensity ([6]; lower abdomen): 60 to 90 min
- metabolites (additional peaks) in NMR spectrum ([6]; upper abdomen): No clear evidence of the presence of additional peaks
- time at which NMR signal from the upper abdomen reached maximum intensity ([6]; upper abdomen): 10 to 40 min
- half-life ([6]; mouse, upper abdomen (in vivo NMR signal), iv, analysis period 40-120 min, mean ± s.d. of three mice, read-out: half life for the decline of NMR signal from the upper abdomen (overall mean)): 28 min
- reduction of inhibitory activity towards thymidylate synthase in comparison to ICI 198583 (thymidylate synthase): 7 fold
- reduction of cytotoxicity in comparison to ICI 198583 ([7]; ref A.L. Jackman, unpublished results): 14 fold
- CB3988 concentration in bile and urine, molar [8]: 40 to 60 mM
- CB3988 concentration in liver and small intestines ([8]; 30 and 60 min): > 1 mg g-1 wet weight
- CB3988 concentration in bile and urine (gall bladder and urinary bladder) ([8]; 30 and 60 min, HPLC): 20 to 30 mg/mL
- Conc. large intestine ([8]; 60 min, large intestine (ND)): < 0.02 mg g-1 wet weight
- acute toxicity (Acute toxicity in mice): no acute toxicity
- metabolites in NMR spectra ([9]; intact and cannulated bile ducts): no metabolites being detected
- time by which NMR signal reached the limit of detection ([9]; upper abdomen, bile duct cannulated): 15 to 20 min
- time after bolus dose at which NMR signal was detected [9, 11]: up to 2 min
- time by which NMR signal intensity reached a maximum value [9, 11]: ≤ 10 min
- half-life ([9]; rat, iv, upper abdomen, three bile duct cannulated rats, read-out: half-life for the decline in the NMR signal, individual rats): 5.6 min
- acute toxicity (Acute toxicity in rats): no acute toxicity

SMILES: C#CCN(Cc1ccc2nc(C)[nH]c(=O)c2c1)c1ccc(C(=O)N[C@@H](CCC(=O)O)C(=O)O)cc1 [ICI 198583, C2-desamino-C2-methyl-N10-propargyl-5,8-dideazafolic acid]
- potency in cytotoxicity studies relative to CB3717 ([7]; ref Hughes et al., 1988, Jackman et al.): markedly more potent than CB3717
- acute liver and kidney toxicity [10]: devoid of acute liver and kidney toxicity
- retention in liver and kidney [3]; 1988: not retained in either the liver or the kidney
- aqueous solubility [4]: greatly enhanced aqueous solubility compared to CB3717
